Laboratory results: PubChem BioAssay AID1645848
Values after ≈ are worked out from the molar mass of the structure shown. Non-standard residues stand in square brackets, D forms with d. Residues, ends and D or L forms follow the SMILES beside them. ξ: configuration not given here. ξLac(3-iPr) = CC(C)CC(O)C(=O)O; NMeV = CN[CH](C(=O)O)C(C)C; NMeA = CN[CH](C)C(=O)O; βAla = NCCC(=O)O

Conditions: buffer; pH 7.4; 6.0 h; 150.0 µM

SMILES | solubility kinetic [µg/mL]
Cc1cccc(-n2cnc3cc(C(=O)N4CCCC(C(C)C)C4)ccc32)c1 (stereo unspecified) | 5.59 (≈ 15.5 µM)
CCC(C)C1NC(=O)C2CCCN2C(=O)C(CC(C)C)OC(=O)CCNC(=O)C(C)N(C)C(=O)C(C(C)C)N(C)C1=O (stereo unspecified) (cyclo([ξLac(3-iPr)]PI[NMeV][NMeA][βAla]); configuration not given here) | 2.68 (≈ 4.52 µM)
CC(C)c1ccccc1-c1ncc(F)c(NCC2CCN(c3cccnc3)CC2)n1 | 9.06 (≈ 22.3 µM)
O=C(Nc1nc(-c2ccccc2)cs1)c1ccncc1NS(=O)(=O)c1ccc2c(c1)CCC2 | 5.8 (≈ 12.2 µM)
CC(=O)N1CCc2cc(S(=O)(=O)NCCC3=CCCCC3)ccc21 | 4.37 (≈ 12.6 µM)
COc1ccc(C)cc1NC(=O)c1cnc(-c2ccc(F)cc2)nc1-c1ccncc1 | < 1
c1ccc2c(NC3CCCCC3)nc(-c3ccncc3)nc2c1 | < 1
Cc1noc(C)c1-c1ccc(-c2cc(C(N)=O)c(NC(N)=O)s2)c(O[C@H]2CCNC2)c1 | 38.5 (≈ 87.3 µM)
O=C(Nc1ccc(S(=O)(=O)Nc2nccs2)cc1)c1ccnc(-c2ccccc2)c1 | 15.6 (≈ 35.8 µM)
Cn1cc(Nc2cnccc2C(=O)O)c2cccnc21 | 32.6 (≈ 122 µM)
COc1ccccc1NC(=O)C1=C(C)Nc2c(C(=O)Nc3ccc(F)cc3)cnn2C1c1ccc(Cl)cc1 (stereo unspecified) | < 1
O=C(/C=C/c1cccnc1)NCCCCC1CCN(C(=O)c2ccccc2)CC1 | > 58
Cc1ccc(-c2csc(NC(=O)c3ccccc3NS(=O)(=O)c3ccc(C)cc3)n2)cc1 | < 1
CCOC(=O)c1ccc(N2C(=O)c3n[nH]c(-c4cccs4)c3C2c2ccc(OCC)cc2)cc1 (stereo unspecified) | < 1
CN(C(=O)CSc1nc2c(c(=O)[nH]1)CCCC2)c1ccccc1 | > 49
CC(=O)NCc1ccc(-c2csc(Nc3cc(C)cc(C)c3)n2)o1 | 1.14 (≈ 3.33 µM)
COc1cc(-c2nc(-c3c(C)noc3C)cc3c2cc(C)n3CCN(C)C)ccn1 | > 90
C=CC(=O)N1CCCN(c2cc(NCCC(=O)O)nc(-c3ccccn3)n2)CC1 | > 59
c1coc(-c2nc3ccncc3[nH]2)c1 | 13.9 (≈ 75.1 µM)
CNC(=O)c1nn(C)c2c1C(C)(C)Cc1cnc(Nc3ccc(N4CCN(C)CC4)cc3)nc1-2 | > 68
CC1(C)CCC(CN2CCN(c3ccc(C(=O)NS(=O)(=O)c4ccc(NCC5CCOCC5)c([N+](=O)[O-])c4)c(Oc4cnc5[nH]ccc5c4)c3)CC2)=C(c2ccc(Cl)cc2)C1 | < 1
COc1ccc(C2=Nn3c(nnc3-c3ccncc3)SC2)cc1 | 9.06 (≈ 28 µM)

SMILES | solubility kinetic [µg/mL]
O=C(Cn1ccn2nc3c(c2c1=O)CCCCC3)Nc1ccc2c(c1)OCO2 | < 1
Nc1c(-c2ccncc2)cc[nH]c1=O | 11.8 (≈ 63.1 µM)
CCOC(=O)N1CCc2c(sc(NCc3sccc3C)c2C(=O)Nc2cc(Cl)ccc2OC)C1 | < 1
CC1=C(C(=O)Nc2nc3ccccc3s2)C(c2[nH]ncc2Cl)N=C(Nc2nc3ccccc3o2)N1 (stereo unspecified) | < 1
Cc1ccc(S(=O)(=O)Nc2nc3ccc(C)cc3nc2Nc2ccc3c(c2)OCO3)cc1 | > 66
COc1ncccc1-c1cc2c(ccn2CC2CCN([S+](C)(=O)[O-])CC2)c(N2CCOCC2)n1 | 50.2 (≈ 103 µM)
COc1ccccc1-c1nc(NCc2ccc(-c3cccnc3)cc2)c2ccccc2n1 | < 1
CCc1cccc(NS(=O)(=O)c2ccc3c(c2)CC(C)N3C(=O)C2CC2)c1 (stereo unspecified) | < 1
COc1ccc(CN2CCNc3cc(Nc4ccccc4)ncc3C2)cc1O | > 83
Cc1c(O)ccc2c1OC(C)(C)CC2 | 8.29 (≈ 43.1 µM)
CSc1ncc(Cl)c(C(=O)Nc2c(C)cccc2C)n1 | 1.91 (≈ 6.19 µM)
NC(=O)C1CCN(c2nc(-c3ccccc3[N+](=O)[O-])cs2)CC1 | > 49
CC1=C[C@@H](CNC(C)C)[C@H](C(C)C)C[C@H]1Cc1nnc(-c2ccncc2)o1 | > 54
CCn1cc(C(=O)N2CCN(c3cccc(Cl)c3)CC2)c2cc(OC)c(OC)cc2c1=O | 3.32 (≈ 7.27 µM)
CN(Cc1cnc2nc(N)nc(N)c2n1)c1ccc(C(=O)N[C@@H](CCC(=O)O)C(=O)O)cc1 | > 67
CCNC(=O)c1noc(-c2cc(C(C)C)c(O)cc2O)c1-c1ccc(CN2CCOCC2)cc1 | > 69
Fc1cnc(-c2ccccc2C(F)F)nc1NCc1ccc(-n2ccnn2)cc1 | < 1
O=C(CSc1ccccc1)Nc1nnc(COc2ccc(Cl)cc2)s1 | < 1
O=S(=O)(Nc1ccccc1)c1ccc(NCc2cccc(Cl)c2O)cc1 | 2.64 (≈ 6.8 µM)
Cc1nn(-c2ccccc2)c2nc(C3CC3)cc(C(=O)Nc3ccc(F)cc3)c12 | < 1
Cc1ccc(S(=O)(=O)Nc2cc(C)ccc2C(=O)Nc2nc(-c3ccccc3)cs2)cc1 | < 1
FC(F)(F)c1ccccc1-c1nc(NCc2ccc(-c3cccnc3)cc2)c2ccccc2n1 | < 1

SMILES | solubility kinetic [µg/mL]
CC(C)(C)c1ccc(OCc2nn3c(-c4ccncc4)nnc3s2)cc1 | < 1
CCCc1oc2ccc(NS(=O)(=O)c3ccc(OC)cc3)cc2c1C(=O)OCC | < 1
Cc1sc2c(c1C)C(c1ccc(Cl)cc1)=N[C@@H](CC(=O)Nc1ccc(OCCOCCOCCOCCNc3cccc4c3C(=O)N(C3CCC(=O)NC3=O)C4=O)cc1)c1nnc(C)n1-2 (stereo partly specified) | < 1
CC(C)(C)c1ccc(S(=O)(=O)c2cnc(SCC(=O)Nc3ccc(F)c(Cl)c3)[nH]c2=O)cc1 | 58.4 (≈ 114 µM)
Cn1ccc2c(C(=O)NCC3CCC(=O)N3)nc(-c3ccccc3C#N)cc21 (stereo unspecified) | 52.4 (≈ 140 µM)
O=c1[nH]nc(Sc2ncc([N+](=O)[O-])s2)n1-c1ccc2c(c1)OCCO2 | 28.7 (≈ 75.6 µM)
O=C(Nc1ccc(Cl)cc1)C(NS(=O)(=O)c1cccs1)c1ccccc1 (stereo unspecified) | < 1
COCCNC(=O)c1ccc(Cn2c(=S)[nH]c3cc4c(cc3c2=O)OCO4)cc1 | 6.98 (≈ 16.9 µM)
CN1Cc2c(cc(N3CCOCC3)nc2-c2ccccc2OC(F)(F)F)C1=O | 12.1 (≈ 30.8 µM)
COc1ccc(-c2nc3ccc(C4=NNC(=O)CC4C)cc3[nH]2)cc1 (stereo unspecified) | < 1
Cc1ccc(S(=O)(=O)Nc2cnccc2C(=O)NCCc2ccccc2)cc1 | > 58
O=C1CCCC2=C1C(c1[nH]ncc1Cl)N=C(Nc1nc3cccc(Cl)c3o1)N2 (stereo unspecified) | < 1
CC(C)(C)C(O)C(Oc1ccc(Cl)cc1)n1cncn1 (stereo unspecified) | > 44
O=c1[nH]c(C2CCN(S(=O)(=O)c3ccc4c(c3)OCCO4)CC2)nc2c1nnn2Cc1c(F)cccc1Cl | < 1
Cc1cc(Br)ccc1NC(=O)C(NS(=O)(=O)c1cccs1)c1ccccc1 (stereo unspecified) | < 1
CO[C@@H]1/C=C\O[C@@]2(C)Oc3c(C)c(O)c4c(c3C2=O)C(=N[C@H]2CC[C@H](O)O[C@@H]2C)C=C(NC(=O)/C(C)=C\C(=O)[C@@H]2C[C@@H]2[C@@H](O)[C@H](C)[C@@H](O)[C@H](C)[C@H](OC(C)=O)[C@@H]1C)C4=O | 32.3 (≈ 39.3 µM)
CCOc1ccc(CCNC(=O)c2cc3ccccc3n2Cc2cccc(C)n2)cc1OCC | < 1
CCOC(=O)C1=C(C)NC(=O)CC1C(=O)Nc1cc(Cl)cc(Cl)c1 (stereo unspecified) | 22.4 (≈ 60.2 µM)
COc1cc(N2CCC(N3CCN(C)CC3)CC2)ccc1Nc1ncc(Cl)c(Nc2ccccc2P(C)(C)=O)n1 | > 86
Cc1ccccc1C(C(=O)NC1CCCC1)N(C(=O)Cn1cnc2ccccc21)c1cccc(F)c1 (stereo unspecified) | 12.2 (≈ 25.1 µM)
COc1cccc(C(=O)Nc2ccc3c(N4CCOCC4)ncnc3c2)c1 | > 54
O=C1Nc2ccccc2/C1=C/c1cccc(C(=O)O)c1 | > 39
